Experimental data from ChEMBL document CHEMBL1201862, “PubChem BioAssay data set” (2004).
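Compound exposure: 48 hours, 5 concentrations, 96-well plates. GI50: concentration for 50% inhibition of growth.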 The source made the active and inactive calls. Rule as the data show it: active = GI50 up to about 1.1 µM and inactive = higher.

Tests used:
Assay in all cases: growth of human tumour cells (NCI), 48 h
[1] = test system: UO-31
[2] = test system: M14
[3] = test system: CCRF-CEM
[4] = test system: SNB-78
[5] = test system: UACC-257
[6] = test system: NCI-H460
[7] = test system: M19-MEL
[8] = test system: SW-620
[9] = test system: HL-60
[10] = test system: Malme-3M
[11] = test system: DMS-273
[12] = test system: SK-MEL-28
[13] = test system: HT-29
[14] = test system: HOP-92
[15] = test system: XF498
[16] = test system: DMS-114
[17] = test system: SF-268
[18] = test system: DLD-1
[19] = test system: SK-OV-3
[20] = test system: MOLT-4
[21] = test system: HCC 2998
[22] = test system: COLO 205
[23] = test system: SK-MEL-5
[24] = test system: OVCAR-3
[25] = test system: ACHN
[26] = test system: HCT-15
[27] = test system: SN12C
[28] = test system: A498
[29] = test system: NCI-H522
[30] = test system: SF-539
[31] = test system: SK-MEL-2
[32] = test system: RXF 393
[33] = test system: UACC-62
[34] = test system: HOP-62
[35] = test system: OVCAR-5
[36] = test system: SNB-75
[37] = test system: RPMI-8226
[38] = test system: U-251
[39] = test system: EKVX
[40] = test system: OVCAR-4
[41] = test system: 786-0
[42] = test system: IGROV-1
[43] = test system: NCI-H23
[44] = test system: A549
[45] = test system: SF-295
[46] = test system: HCT-116
[47] = test system: K562
[48] = test system: CAKI-1
[49] = test system: LOX IMVI
[50] = test system: SNB-19
[51] = test system: TK-10
[52] = test system: OVCAR-8
[53] = test system: LXFL 529
[54] = test system: KM12
[55] = test system: NCI-H226
[56] = test system: KM-20L2
[57] = test system: SR
[58] = test system: BT-549
[59] = test system: HOP-18

## CC1(C2CCC3(C)C(C2)C3Sc2ccccc2)OCCO1 (stereo unspecified)
[1]
  GI50: 12.6 µM (inactive)
[2]
  GI50: 37 µM (inactive)
[3]
  GI50: 17.9 µM (inactive)
[4]
  GI50: 40 µM (inactive)
[5]
  GI50: 17.5 µM (inactive)
[6]
  GI50: 20.4 µM (inactive)
[7]
  GI50: 19.8 µM (inactive)
[8]
  GI50: 21.5 µM (inactive)
[9]
  GI50: 12.1 µM (inactive)
[10]
  GI50: 18.3 µM (inactive)
[11]
  GI50: 19.9 µM (inactive)
[12]
  GI50: 24.9 µM (inactive)
[13]
  GI50: 17.5 µM (inactive)
[14]
  GI50: 23.3 µM (inactive)
[15]
  GI50: 17.1 µM (inactive)
[16]
  GI50: 21.8 µM (inactive)
[17]
  GI50: 34.8 µM (inactive)
[18]
  GI50: 29 µM (inactive)
[19]
  GI50: 33 µM (inactive)
[20]
  GI50: 18 µM (inactive)
[21]
  GI50: 20.1 µM (inactive)
[22]
  GI50: 19.4 µM (inactive)
[23]
  GI50: 17.3 µM (inactive)
[24]
  GI50: 14.4 µM (inactive)
[25]
  GI50: 20.7 µM (inactive)
[26]
  GI50: 31.9 µM
[27]
  GI50: 20.4 µM (inactive)
[28]
  GI50: 18.8 µM (inactive)
[29]
  GI50: 18.9 µM (inactive)
[30]
  GI50: 20.8 µM (inactive)
[31]
  GI50: 16.8 µM (inactive)
[32]
  GI50: 15 µM (inactive)
[33]
  GI50: 19.4 µM (inactive)
[34]
  GI50: 20.2 µM (inactive)
[35]
  GI50: 20.5 µM (inactive)
[36]
  GI50: 54.6 µM (inactive)
[37]
  GI50: 13.5 µM (inactive)
[38]
  GI50: 19.8 µM (inactive)
[39]
  GI50: 26.7 µM (inactive)
[40]
  GI50: 31.3 µM (inactive)
[41]
  GI50: 15.1 µM (inactive)
[42]
  GI50: 35.7 µM (inactive)
[43]
  GI50: 22.4 µM (inactive)
[44]
  GI50: 24.2 µM (inactive)
[45]
  GI50: 21.5 µM (inactive)
[46]
  GI50: 15.5 µM (inactive)
[47]
  GI50: 17.1 µM (inactive)
[48]
  GI50: 20.3 µM (inactive)
[49]
  GI50: 23.7 µM (inactive)
[50]
  GI50: 27 µM (inactive)
[51]
  GI50: 56.6 µM (inactive)
[52]
  GI50: 31.8 µM (inactive)
[53]
  GI50: 37.2 µM (inactive)
[54]
  GI50: 25.6 µM (inactive)

## CCOC(=O)CP(=S)(S)c1ccccc1 (stereo unspecified)
[1]
  GI50: > 100 µM (inactive)
[3]
  GI50: > 100 µM (inactive)
[4]
  GI50: > 100 µM (inactive)
[5]
  GI50: > 100 µM (inactive)
[6]
  GI50: > 100 µM (inactive)
[7]
  GI50: > 100 µM (inactive)
[8]
  GI50: > 100 µM (inactive)
[9]
  GI50: > 100 µM (inactive)
[10]
  GI50: > 100 µM (inactive)
[11]
  GI50: > 100 µM (inactive)
[12]
  GI50: > 100 µM (inactive)
[55]
  GI50: > 100 µM (inactive)
[13]
  GI50: > 100 µM (inactive)
[14]
  GI50: > 100 µM (inactive)
[15]
  GI50: 45.2 µM (inactive)
[16]
  GI50: > 100 µM (inactive)
[17]
  GI50: > 100 µM (inactive)
[18]
  GI50: > 100 µM (inactive)
[19]
  GI50: > 100 µM (inactive)
[20]
  GI50: > 100 µM (inactive)
[56]
  GI50: > 100 µM (inactive)
[22]
  GI50: > 100 µM (inactive)
[23]
  GI50: > 100 µM (inactive)
[25]
  GI50: > 100 µM (inactive)
[27]
  GI50: > 100 µM (inactive)
[28]
  GI50: > 100 µM (inactive)
[29]
  GI50: > 100 µM (inactive)
[30]
  GI50: > 100 µM (inactive)
[31]
  GI50: > 100 µM (inactive)
[32]
  GI50: > 100 µM (inactive)
[33]
  GI50: > 100 µM (inactive)
[34]
  GI50: > 100 µM (inactive)
[35]
  GI50: > 100 µM (inactive)
[38]
  GI50: > 100 µM (inactive)
[39]
  GI50: > 100 µM (inactive)
[40]
  GI50: > 100 µM (inactive)
[41]
  GI50: > 100 µM (inactive)
[43]
  GI50: > 100 µM (inactive)
[44]
  GI50: > 100 µM (inactive)
[45]
  GI50: > 10 µM (inactive)
[47]
  GI50: > 100 µM (inactive)
[48]
  GI50: > 100 µM (inactive)
[49]
  GI50: > 100 µM (inactive)
[50]
  GI50: > 100 µM (inactive)
[51]
  GI50: > 100 µM (inactive)
[52]
  GI50: > 100 µM (inactive)
[53]
  GI50: > 100 µM (inactive)
[57]
  GI50: > 100 µM (inactive)
[54]
  GI50: > 100 µM (inactive)

## COc1ccc(/C=C\c2cc(OC)c(OC)c(OC)c2)cc1O
[13]
  GI50: 3.84 µM (inactive)
[58]
  GI50: 23.9 µM (inactive)
[56]
  GI50: 2.01 µM (inactive)
[22]
  GI50: 2.9 µM (inactive)
[35]
  GI50: 5.43 µM (inactive)
[39]
  GI50: 14.7 µM (inactive)
[42]
  GI50: < 0.02 µM (active)
[51]
  GI50: 56.9 µM (inactive)

## C#CCCCCC#Cc1ccccc1C(=O)OC
[1]
  GI50: 40.5 µM (inactive)
[2]
  GI50: > 100 µM (inactive)
[3]
  GI50: 2.91 µM (inactive)
[5]
  GI50: 71.8 µM (inactive)
[6]
  GI50: > 100 µM (inactive)
[8]
  GI50: 21.1 µM (inactive)
[9]
  GI50: 10.2 µM (inactive)
[10]
  GI50: 77.6 µM (inactive)
[11]
  GI50: 38.3 µM (inactive)
[12]
  GI50: 25.8 µM (inactive)
[55]
  GI50: 43.5 µM (inactive)
[13]
  GI50: 30.5 µM (inactive)
[14]
  GI50: 24.9 µM (inactive)
[15]
  GI50: 65.8 µM (inactive)
[16]
  GI50: 17.3 µM (inactive)
[17]
  GI50: 21 µM (inactive)
[18]
  GI50: 47.2 µM (inactive)
[19]
  GI50: > 100 µM (inactive)
[20]
  GI50: 12.7 µM (inactive)
[56]
  GI50: 58.2 µM (inactive)
[21]
  GI50: > 100 µM (inactive)
[22]
  GI50: > 100 µM (inactive)
[23]
  GI50: 58.6 µM (inactive)
[24]
  GI50: 32.5 µM (inactive)
[25]
  GI50: 64.3 µM (inactive)
[26]
  GI50: 63.8 µM
[27]
  GI50: 35 µM (inactive)
[28]
  GI50: > 100 µM (inactive)
[59]
  GI50: > 100 µM (inactive)
[30]
  GI50: > 100 µM (inactive)
[31]
  GI50: 39.7 µM (inactive)
[32]
  GI50: 21.4 µM (inactive)
[33]
  GI50: 32.7 µM (inactive)
[34]
  GI50: > 100 µM (inactive)
[35]
  GI50: 52.8 µM (inactive)
[36]
  GI50: 20.6 µM (inactive)
[37]
  GI50: 13.1 µM (inactive)
[38]
  GI50: 65.6 µM (inactive)
[39]
  GI50: 85.1 µM (inactive)
[40]
  GI50: 58.9 µM (inactive)
[42]
  GI50: 89.3 µM (inactive)
[43]
  GI50: 37.4 µM (inactive)
[44]
  GI50: > 100 µM (inactive)
[45]
  GI50: 37.3 µM (inactive)
[46]
  GI50: 11 µM (inactive)
[47]
  GI50: 9.93 µM (inactive)
[49]
  GI50: 14.8 µM (inactive)
[50]
  GI50: > 100 µM (inactive)
[51]
  GI50: > 100 µM (inactive)
[52]
  GI50: 15.5 µM (inactive)
[57]
  GI50: 2.28 µM (inactive)
[54]
  GI50: 58.2 µM (inactive)

## C[C@@H]1C[C@H]2[C@@H]3CCC4=CC(=O)C=C[C@]4(C)[C@@]3(F)[C@@H](O)C[C@]2(C)[C@@]1(O)C(=O)CO [DEXAMETHASONE]
[1]
  GI50: > 100 µM (inactive)
[2]
  GI50: > 100 µM (inactive)
[3]
  GI50: 0.0239 µM (active)
[5]
  GI50: > 100 µM (inactive)
[7]
  GI50: > 100 µM (inactive)
[8]
  GI50: > 100 µM (inactive)
[9]
  GI50: > 100 µM (inactive)
[10]
  GI50: > 100 µM (inactive)
[12]
  GI50: > 100 µM (inactive)
[55]
  GI50: > 100 µM (inactive)
[13]
  GI50: > 100 µM (inactive)
[14]
  GI50: > 100 µM (inactive)
[16]
  GI50: 95.9 µM (inactive)
[18]
  GI50: > 100 µM (inactive)
[19]
  GI50: > 100 µM (inactive)
[20]
  GI50: 95.1 µM (inactive)
[56]
  GI50: > 100 µM (inactive)
[22]
  GI50: > 100 µM (inactive)
[23]
  GI50: > 100 µM (inactive)
[24]
  GI50: > 100 µM (inactive)
[25]
  GI50: > 100 µM (inactive)
[26]
  GI50: > 100 µM
[27]
  GI50: < 0.01 µM (active)
[29]
  GI50: > 100 µM (inactive)
[31]
  GI50: > 100 µM (inactive)
[33]
  GI50: > 100 µM (inactive)
[34]
  GI50: > 100 µM (inactive)
[35]
  GI50: > 100 µM (inactive)
[39]
  GI50: 83.6 µM (inactive)
[40]
  GI50: > 100 µM (inactive)
[41]
  GI50: > 100 µM (inactive)
[42]
  GI50: > 100 µM (inactive)
[43]
  GI50: > 100 µM (inactive)
[44]
  GI50: > 100 µM (inactive)
[46]
  GI50: > 100 µM (inactive)
[47]
  GI50: > 100 µM (inactive)
[48]
  GI50: > 100 µM (inactive)
[49]
  GI50: > 100 µM (inactive)
[51]
  GI50: > 100 µM (inactive)
[52]
  GI50: > 100 µM (inactive)
[53]
  GI50: > 100 µM (inactive)
[57]
  GI50: 49.3 µM (inactive)
[54]
  GI50: > 100 µM (inactive)
